Laboratory results published in ChEMBL document CHEMBL5465560, “Selectivity Literature for EUbOPEN Chemogenomic Library” (2024).
Blank lines part the entries; values can stand above or below the compound they belong to.

Columns and labels:
[1] = Selectivity interaction (Ambit KINOMEscan and KiNATiv profiling in Jurkat cells) EUB0000090b CDPK1; details: Selectivity number of off-targets 9; Selectivity number of targets 456; Source Knowledge https://www.nature.com/articles/nchembio.2166; at 1 µM
[2] = biological target: Serine/threonine-protein kinase PLK2 (Homo sapiens, UniProt Q9NYY3); assay: Selectivity interaction (Ambit KINOMEscan and KiNATiv profiling in Jurkat cells) EUB0000090b PLK2; type: cell-based; details: at 1 µM
[3] = biological target: Serine/threonine-protein kinase haspin (Homo sapiens, UniProt Q8TF76)
[4] = biological target: Serine/threonine-protein kinase SIK2 (Homo sapiens) (UniProt Q9H0K1); details: at 10 µM
[5] = biological target: T1, NUAK family SNF1-like kinase 2 (Homo sapiens) (UniProt Q9H093); details: at 10 µM
T1 sequence (whole entry): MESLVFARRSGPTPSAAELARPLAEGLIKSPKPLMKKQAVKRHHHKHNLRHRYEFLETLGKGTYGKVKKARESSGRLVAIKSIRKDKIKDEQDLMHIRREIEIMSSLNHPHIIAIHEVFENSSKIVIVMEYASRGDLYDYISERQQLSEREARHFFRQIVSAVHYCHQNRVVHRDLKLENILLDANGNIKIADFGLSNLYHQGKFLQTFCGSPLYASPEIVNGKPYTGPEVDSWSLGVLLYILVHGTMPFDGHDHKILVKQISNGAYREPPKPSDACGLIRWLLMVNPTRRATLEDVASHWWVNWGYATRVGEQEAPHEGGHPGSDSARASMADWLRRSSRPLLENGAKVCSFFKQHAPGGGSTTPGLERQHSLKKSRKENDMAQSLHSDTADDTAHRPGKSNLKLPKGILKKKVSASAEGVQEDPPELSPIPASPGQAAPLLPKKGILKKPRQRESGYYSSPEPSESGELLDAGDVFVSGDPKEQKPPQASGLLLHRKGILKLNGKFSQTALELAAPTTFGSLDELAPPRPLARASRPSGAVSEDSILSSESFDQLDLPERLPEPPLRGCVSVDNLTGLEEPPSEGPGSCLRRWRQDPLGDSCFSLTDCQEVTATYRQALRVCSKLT

[6] = biological target: Cyclin-dependent kinase 16 (Homo sapiens) (UniProt Q00536); details: at 10 µM
[7] = biological target: Cyclin-dependent kinase 11B (Homo sapiens) (UniProt P21127); assay: Selectivity interaction (KinomeScan (DiscoverX)) EUB0000595a CDK11B; details: at 10 µM
[8] = biological target: T2, Uncharacterized serine/threonine-protein kinase SBK3 (Homo sapiens) (UniProt P0C264); assay: Selectivity interaction (KinomeScan (DiscoverX)) EUB0001079a SBK3; details: at 1 µM
T2 sequence (whole entry): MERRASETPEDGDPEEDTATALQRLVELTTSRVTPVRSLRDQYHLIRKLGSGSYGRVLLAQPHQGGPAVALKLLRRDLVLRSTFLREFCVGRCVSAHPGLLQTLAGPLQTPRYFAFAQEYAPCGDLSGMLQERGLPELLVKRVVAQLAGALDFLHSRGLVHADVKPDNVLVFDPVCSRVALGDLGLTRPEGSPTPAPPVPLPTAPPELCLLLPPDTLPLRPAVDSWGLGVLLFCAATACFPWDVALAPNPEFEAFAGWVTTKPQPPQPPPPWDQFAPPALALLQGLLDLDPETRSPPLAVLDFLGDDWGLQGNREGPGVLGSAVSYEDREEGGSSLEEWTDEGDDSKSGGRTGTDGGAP

[9] = biological target: Dual specificity tyrosine-phosphorylation-regulated kinase 1B (Homo sapiens, UniProt Q9Y463); assay: Selectivity interaction (KinomeScan (DiscoverX)) EUB0000092b DYRK1B; details: at 10 µM
[10] = biological target: BDNF/NT-3 growth factors receptor (Homo sapiens) (UniProt Q16620); assay: Selectivity interaction (KinomeScan (DiscoverX)) EUB0001619a NTRK2; details: at 1 µM
[11] = biological target: Serine/threonine-protein kinase/endoribonuclease IRE1 (Homo sapiens) (UniProt O75460); assay: Selectivity interaction (ActivX KiNativ screen (ex vivo kinase selectivity in human PBMCs)) EUB0001619a ERN1; type: cell-based; details: PBMC, at 1 µM
[12] = biological target: T3, Ephrin type-B receptor 3 (Homo sapiens) (UniProt P54753); assay: Selectivity interaction (KinomeScan (DiscoverX)) EUB0000618a EPHB3; details: at 10 µM
T3 sequence (whole entry): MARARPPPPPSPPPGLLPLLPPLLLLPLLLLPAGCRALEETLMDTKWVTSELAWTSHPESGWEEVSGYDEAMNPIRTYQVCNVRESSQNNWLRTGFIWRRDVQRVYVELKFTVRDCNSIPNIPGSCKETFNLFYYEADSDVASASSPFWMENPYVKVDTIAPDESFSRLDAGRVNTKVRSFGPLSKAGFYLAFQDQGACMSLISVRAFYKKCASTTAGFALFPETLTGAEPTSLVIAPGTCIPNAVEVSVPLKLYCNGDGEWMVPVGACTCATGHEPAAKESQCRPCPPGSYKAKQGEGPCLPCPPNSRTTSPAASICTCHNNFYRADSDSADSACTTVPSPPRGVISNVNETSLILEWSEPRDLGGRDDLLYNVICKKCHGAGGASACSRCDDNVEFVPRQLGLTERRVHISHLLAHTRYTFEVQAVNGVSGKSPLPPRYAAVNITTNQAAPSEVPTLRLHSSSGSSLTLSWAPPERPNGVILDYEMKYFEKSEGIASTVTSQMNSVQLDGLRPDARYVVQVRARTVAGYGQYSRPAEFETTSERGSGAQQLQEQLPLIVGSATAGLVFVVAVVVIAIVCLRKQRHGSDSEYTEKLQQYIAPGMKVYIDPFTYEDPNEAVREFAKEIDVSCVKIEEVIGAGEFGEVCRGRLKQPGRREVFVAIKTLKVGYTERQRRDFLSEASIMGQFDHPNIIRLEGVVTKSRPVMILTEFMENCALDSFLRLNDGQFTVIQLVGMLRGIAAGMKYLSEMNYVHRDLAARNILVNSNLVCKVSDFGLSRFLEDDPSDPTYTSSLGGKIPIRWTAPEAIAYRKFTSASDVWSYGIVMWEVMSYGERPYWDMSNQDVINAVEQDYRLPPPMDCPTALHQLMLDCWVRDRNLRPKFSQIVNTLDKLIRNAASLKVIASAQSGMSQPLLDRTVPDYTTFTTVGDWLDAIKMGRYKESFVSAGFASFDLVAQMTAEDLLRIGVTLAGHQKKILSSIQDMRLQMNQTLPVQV

[13] = biological target: Phosphatidylinositol 4,5-bisphosphate 3-kinase catalytic subunit gamma isoform (Homo sapiens) (UniProt P48736); assay: Selectivity interaction (KinomeScan (DiscoverX)) EUB0000607a PIK3CG; details: at 10 µM
[14] = biological target: Dual specificity protein kinase CLK3 (Homo sapiens, UniProt P49761); assay: Selectivity interaction (SelectScreen profiling (Invitrogen)) EUB0000607a CLK3; details: at 2 µM
[15] = biological target: Non-receptor tyrosine-protein kinase TYK2 (Homo sapiens, UniProt P29597); assay: Selectivity interaction (KinomeScan (DiscoverX)) EUB0000607a TYK2; details: at 10 µM

Sequence of Serine/threonine-protein kinase haspin (Q8TF76 whole entry): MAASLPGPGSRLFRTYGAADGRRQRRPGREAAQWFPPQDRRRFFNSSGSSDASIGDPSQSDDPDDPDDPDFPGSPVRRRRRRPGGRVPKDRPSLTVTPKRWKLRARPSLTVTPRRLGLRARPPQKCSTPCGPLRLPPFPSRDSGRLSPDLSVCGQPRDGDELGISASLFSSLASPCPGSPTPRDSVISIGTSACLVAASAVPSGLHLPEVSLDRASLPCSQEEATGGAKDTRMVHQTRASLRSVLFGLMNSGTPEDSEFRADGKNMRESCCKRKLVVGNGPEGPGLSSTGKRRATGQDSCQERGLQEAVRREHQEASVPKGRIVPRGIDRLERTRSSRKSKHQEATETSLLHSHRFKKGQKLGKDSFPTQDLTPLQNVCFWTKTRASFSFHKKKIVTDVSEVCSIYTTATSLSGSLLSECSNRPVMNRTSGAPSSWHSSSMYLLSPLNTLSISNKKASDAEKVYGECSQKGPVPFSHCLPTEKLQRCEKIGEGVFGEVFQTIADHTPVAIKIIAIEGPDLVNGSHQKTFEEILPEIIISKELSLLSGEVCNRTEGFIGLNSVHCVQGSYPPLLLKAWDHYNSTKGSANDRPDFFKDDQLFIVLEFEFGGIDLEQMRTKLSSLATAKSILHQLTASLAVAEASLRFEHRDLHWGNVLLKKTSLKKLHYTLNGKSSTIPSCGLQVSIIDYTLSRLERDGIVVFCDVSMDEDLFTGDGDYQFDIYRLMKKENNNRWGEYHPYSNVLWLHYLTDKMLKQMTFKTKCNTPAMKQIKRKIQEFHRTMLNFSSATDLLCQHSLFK
Sequence of Dual specificity protein kinase CLK3 (P49761 whole entry, looked up): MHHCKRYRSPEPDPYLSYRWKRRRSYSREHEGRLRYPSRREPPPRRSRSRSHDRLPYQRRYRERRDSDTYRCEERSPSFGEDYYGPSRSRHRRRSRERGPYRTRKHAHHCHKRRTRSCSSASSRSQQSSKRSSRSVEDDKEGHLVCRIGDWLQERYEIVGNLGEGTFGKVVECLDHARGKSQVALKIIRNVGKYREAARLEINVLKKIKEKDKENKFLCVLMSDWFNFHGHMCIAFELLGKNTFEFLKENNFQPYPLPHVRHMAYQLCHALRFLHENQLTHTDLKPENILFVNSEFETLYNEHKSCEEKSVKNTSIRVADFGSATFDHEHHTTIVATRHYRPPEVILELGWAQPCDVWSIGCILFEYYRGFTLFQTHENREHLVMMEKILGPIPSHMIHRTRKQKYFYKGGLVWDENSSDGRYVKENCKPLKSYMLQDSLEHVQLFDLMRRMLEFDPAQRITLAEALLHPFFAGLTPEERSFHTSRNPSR
Sequence of Serine/threonine-protein kinase/endoribonuclease IRE1 (Homo sapiens) (O75460 19-977 limits assumed): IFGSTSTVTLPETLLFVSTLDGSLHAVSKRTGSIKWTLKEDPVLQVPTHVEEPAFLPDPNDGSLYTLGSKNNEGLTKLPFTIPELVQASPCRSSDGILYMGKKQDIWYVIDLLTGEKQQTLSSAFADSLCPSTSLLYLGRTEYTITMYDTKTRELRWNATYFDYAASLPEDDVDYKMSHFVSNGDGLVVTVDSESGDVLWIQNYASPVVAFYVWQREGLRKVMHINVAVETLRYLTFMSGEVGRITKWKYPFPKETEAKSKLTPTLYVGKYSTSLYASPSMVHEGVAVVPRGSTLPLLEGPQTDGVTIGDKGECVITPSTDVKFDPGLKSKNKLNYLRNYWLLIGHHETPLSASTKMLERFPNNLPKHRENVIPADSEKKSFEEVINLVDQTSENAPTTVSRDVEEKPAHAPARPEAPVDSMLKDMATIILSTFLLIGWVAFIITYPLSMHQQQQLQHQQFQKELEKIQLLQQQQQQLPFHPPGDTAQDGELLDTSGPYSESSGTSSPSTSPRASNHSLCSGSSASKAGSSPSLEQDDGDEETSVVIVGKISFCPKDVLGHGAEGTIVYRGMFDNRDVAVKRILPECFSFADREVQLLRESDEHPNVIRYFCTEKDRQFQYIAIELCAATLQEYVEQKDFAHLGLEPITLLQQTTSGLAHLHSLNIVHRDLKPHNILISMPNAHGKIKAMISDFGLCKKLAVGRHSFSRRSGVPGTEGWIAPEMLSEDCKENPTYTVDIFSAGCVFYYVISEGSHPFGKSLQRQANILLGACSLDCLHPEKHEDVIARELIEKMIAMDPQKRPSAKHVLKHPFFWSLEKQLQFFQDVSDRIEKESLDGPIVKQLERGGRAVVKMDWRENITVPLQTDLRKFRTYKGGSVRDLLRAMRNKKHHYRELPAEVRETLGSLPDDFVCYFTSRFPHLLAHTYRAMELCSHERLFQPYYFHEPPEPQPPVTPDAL
Sequence of Dual specificity tyrosine-phosphorylation-regulated kinase 1B (Q9Y463 whole entry, looked up): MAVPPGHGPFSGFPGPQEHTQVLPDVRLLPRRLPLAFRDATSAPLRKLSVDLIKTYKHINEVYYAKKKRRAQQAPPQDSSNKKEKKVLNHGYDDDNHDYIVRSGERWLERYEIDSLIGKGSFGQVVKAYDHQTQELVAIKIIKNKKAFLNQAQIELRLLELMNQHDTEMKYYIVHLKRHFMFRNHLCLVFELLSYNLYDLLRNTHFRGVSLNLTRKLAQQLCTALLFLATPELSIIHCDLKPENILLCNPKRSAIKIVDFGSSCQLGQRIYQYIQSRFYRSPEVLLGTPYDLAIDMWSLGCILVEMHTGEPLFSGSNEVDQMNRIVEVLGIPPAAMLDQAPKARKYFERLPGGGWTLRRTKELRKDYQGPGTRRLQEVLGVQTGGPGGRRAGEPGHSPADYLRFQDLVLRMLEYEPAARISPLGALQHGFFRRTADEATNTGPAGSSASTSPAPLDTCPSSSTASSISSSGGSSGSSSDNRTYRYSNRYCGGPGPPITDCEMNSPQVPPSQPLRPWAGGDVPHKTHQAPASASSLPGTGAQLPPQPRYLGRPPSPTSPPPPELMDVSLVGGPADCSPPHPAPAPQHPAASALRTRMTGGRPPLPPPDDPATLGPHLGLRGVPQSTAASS
Sequence of Phosphatidylinositol 4,5-bisphosphate 3-kinase catalytic subunit gamma isoform (Homo sapiens) (P48736 whole entry, looked up, canonical isoform): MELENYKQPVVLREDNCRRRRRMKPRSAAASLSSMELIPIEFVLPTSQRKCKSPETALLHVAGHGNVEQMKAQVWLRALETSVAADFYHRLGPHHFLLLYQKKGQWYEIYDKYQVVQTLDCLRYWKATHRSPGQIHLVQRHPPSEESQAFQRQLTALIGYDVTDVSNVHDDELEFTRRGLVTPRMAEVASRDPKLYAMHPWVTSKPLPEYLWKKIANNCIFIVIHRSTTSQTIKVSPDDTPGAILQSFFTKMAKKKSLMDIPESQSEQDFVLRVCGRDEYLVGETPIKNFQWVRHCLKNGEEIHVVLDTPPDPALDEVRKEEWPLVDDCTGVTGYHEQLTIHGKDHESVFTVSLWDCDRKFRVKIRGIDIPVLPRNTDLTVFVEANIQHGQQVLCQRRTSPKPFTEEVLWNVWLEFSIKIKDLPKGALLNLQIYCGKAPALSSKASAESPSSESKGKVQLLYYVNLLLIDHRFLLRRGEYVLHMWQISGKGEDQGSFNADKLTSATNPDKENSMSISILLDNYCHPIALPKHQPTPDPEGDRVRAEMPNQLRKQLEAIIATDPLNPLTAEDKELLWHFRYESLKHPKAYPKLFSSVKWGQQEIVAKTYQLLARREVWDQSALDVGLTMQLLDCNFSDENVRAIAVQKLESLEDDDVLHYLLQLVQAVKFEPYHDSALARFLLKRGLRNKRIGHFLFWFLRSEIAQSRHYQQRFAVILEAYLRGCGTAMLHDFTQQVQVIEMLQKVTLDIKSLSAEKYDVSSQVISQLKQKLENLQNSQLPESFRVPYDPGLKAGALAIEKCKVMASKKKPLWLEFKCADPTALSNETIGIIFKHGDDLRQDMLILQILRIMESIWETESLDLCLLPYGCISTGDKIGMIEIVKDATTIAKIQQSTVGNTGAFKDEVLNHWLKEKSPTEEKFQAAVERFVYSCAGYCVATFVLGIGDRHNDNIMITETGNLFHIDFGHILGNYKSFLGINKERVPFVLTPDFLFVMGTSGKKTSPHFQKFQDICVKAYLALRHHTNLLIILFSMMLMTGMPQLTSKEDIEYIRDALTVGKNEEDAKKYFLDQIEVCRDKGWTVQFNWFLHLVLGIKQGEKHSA
Sequence of Serine/threonine-protein kinase SIK2 (Homo sapiens) (Q9H0K1 whole entry, looked up): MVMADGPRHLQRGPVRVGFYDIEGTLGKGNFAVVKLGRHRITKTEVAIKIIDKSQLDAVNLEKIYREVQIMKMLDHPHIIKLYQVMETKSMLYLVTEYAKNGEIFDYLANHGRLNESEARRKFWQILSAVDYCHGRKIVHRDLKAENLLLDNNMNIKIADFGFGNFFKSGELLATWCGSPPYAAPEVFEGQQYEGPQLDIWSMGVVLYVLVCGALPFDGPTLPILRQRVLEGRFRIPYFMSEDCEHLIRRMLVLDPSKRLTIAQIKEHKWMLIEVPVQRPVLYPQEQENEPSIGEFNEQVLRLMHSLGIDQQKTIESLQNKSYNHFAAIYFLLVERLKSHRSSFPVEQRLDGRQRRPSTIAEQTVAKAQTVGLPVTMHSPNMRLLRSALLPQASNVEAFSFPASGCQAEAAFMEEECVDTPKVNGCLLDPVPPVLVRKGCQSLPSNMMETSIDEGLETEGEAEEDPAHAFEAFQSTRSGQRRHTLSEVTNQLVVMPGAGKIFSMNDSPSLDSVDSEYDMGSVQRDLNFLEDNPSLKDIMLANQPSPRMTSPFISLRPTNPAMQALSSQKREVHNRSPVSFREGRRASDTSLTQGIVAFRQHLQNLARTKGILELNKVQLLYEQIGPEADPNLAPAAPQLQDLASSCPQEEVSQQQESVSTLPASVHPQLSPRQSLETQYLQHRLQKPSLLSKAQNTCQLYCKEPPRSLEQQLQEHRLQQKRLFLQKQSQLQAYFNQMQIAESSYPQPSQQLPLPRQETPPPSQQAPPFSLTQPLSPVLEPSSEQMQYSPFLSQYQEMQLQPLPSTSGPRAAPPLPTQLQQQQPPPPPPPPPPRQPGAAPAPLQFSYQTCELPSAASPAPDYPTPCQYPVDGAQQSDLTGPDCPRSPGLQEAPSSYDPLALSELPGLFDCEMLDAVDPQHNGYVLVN

SMILES: CN(C)C/C=C/C(=O)Nc1ccc(C(=O)N2CCCC(Nc3ncc(Cl)c(-c4c[nH]c5ccccc45)n3)C2)cc1 (stereo not given)
- % of control [1]: 7%
- % of control [2]: 89%

- IC50 [3]: > 10 µM
SMILES: CCc1cccc(CC)c1NC(=O)c1nn(C)c2c1CCc1cnc(Nc3ccc(C(=O)NC4CCN(C)CC4)cc3OC(F)(F)F)nc1-2

- % of control [4]: 100%
- % of control [5]: 100%
SMILES: CCN(CC)CCCCNc1ncc2cc(-c3cc(OC)cc(OC)c3)c(NC(=O)NC(C)(C)C)nc2n1

SMILES: COCC(=O)NC/C=C/c1ccc2ncnc(Nc3ccc(Oc4ccc(C)nc4)c(C)c3)c2c1 [CP-724714]
- % of control [6]: 74%
- % of control [7]: 100%

SMILES: Nc1cnc(N2CCc3cc(S(=O)(=O)Nc4c(F)cc(Cl)cc4F)cc(N4CCCC4=O)c32)nc1 [TP-020n]
- % of control [8]: 100%

SMILES: CCC(=O)N1CCN(c2ccc(-n3c(=O)ccc4cnc5ccc(-c6cnc7ccccc7c6)cc5c43)cc2C(F)(F)F)CC1
- % of control [9]: 87%

SMILES: N#Cc1cccc(-c2c[nH]c3ncnc(N4CCOCC4)c23)c1
- % of control [10]: 63%
- % of inhibition [11]: 2%

SMILES: O[C@H]1CC[C@H](Nc2ncc3nc(Nc4c(F)cc(F)cc4F)n([C@H]4CCOC4)c3n2)CC1
- % of control [12]: 84%

SMILES: CNC(=O)Nc1ccc(-c2nc(N3CC4CCC(C3)O4)c3cnn(C4CCC5(CC4)OCCO5)c3n2)cc1
- % of control [13]: 72%
- % of inhibition [14]: 2%
- % of control [15]: 100%
